doi:10.1101/2025.10.30.685166v1 (biorxiv, 2025)

Legend:
[1] = biological target: T1, Hco-UNC-49B homomeric channel (Haemonchus contortus, UniProt D6BK80); test: cell-based
T1 sequence (D6BK80 22-496): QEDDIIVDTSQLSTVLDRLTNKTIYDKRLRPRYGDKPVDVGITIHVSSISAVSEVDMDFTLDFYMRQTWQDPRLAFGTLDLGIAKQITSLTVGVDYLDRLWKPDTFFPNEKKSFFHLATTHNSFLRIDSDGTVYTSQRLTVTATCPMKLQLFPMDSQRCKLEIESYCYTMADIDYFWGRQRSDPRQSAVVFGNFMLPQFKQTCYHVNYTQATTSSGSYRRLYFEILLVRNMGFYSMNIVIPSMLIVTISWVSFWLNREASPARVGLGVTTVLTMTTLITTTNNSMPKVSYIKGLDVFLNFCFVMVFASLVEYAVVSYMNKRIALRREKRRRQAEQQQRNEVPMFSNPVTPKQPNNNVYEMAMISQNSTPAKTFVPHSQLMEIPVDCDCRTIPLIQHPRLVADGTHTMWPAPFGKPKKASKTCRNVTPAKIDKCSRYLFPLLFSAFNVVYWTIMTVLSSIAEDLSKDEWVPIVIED

[2] = biological target: T2, Hco-UNC-49B/Hco-UNC-49C heteromeric channel (Haemonchus contortus, UniProt D6BJF3+D6BK80); test: cell-based
T2 sequence (D6BK80 22-496): T1 sequence (D6BK80 22-496)
T2 sequence (D6BJF3 22-440): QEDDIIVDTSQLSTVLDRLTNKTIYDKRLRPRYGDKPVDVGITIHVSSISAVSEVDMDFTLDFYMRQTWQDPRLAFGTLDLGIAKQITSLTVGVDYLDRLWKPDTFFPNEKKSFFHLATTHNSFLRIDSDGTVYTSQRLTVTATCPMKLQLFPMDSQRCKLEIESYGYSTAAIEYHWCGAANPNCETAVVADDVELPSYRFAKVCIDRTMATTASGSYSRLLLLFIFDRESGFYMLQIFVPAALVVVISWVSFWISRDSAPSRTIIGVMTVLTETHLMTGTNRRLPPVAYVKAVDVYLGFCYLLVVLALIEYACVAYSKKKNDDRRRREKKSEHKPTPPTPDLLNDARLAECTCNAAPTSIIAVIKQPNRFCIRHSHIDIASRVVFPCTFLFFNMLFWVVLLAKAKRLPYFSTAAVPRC

## NCCCC(=O)O [GABA]
[1]
  EC50: 137 ± 7 µM
[2]
  EC50: 84.9 ± 4 µM
